Some results are limits rather than exact numbers.

Data set [1] is described as follows: Stability of NV651 solution in 25% buffered HPbCD. It is filed as physicochemical. To be noted: stored at 4 °C. The method, then: Twenty-five percent buffered Hydroxy Propyl beta Cyclodextrin (HPbCD) was prepared from Hydroxy Propyl beta Cyclodextrin (Roquette, Lestrem, France), EDTA solution and phosphate buffer at a pH of 7.4, filtered with a […] (VWR, Cat# 28145-483, Radnor, PA, USA) and stored at 4 °C. NV651 was prepared at a concentration of 10 mg/kg with 25% buffered HPbCD (vehicle). NV651 solution was sonicated for 30 min in a water bath sonicator (Bioruptor, Diagenode, Denville, NJ, USA) and shaken for up to an hour, followed by a secondary sterilization with a 0.2-µm filter. NV651 solution was stored at 4 °C up to 2 weeks, with stability confirmed up to 3 weeks.

The test system of data set [2] is human-derived normal cells. Kind of data set: Cytotoxicity panel of human-derived normal cells (overall). It is filed as cell-based. Conditions: overall statement. The protocol:
The evaluation of the off-target effects of NV651 was performed by ImQuest BioSciences Inc. (Frederick, MD, USA) by analyzing the cytotoxicity in a panel of primary cells. NV651 was evaluated at a concentration of 30 µM and five serial half-logarithmic dilutions in triplicate. The positive control compounds for each cell type were purchased from Sigma-Aldrich (St. Louis, MO, USA) and were as follows: […]

A further data set deals with iPS cardiomyocytes. Nature of the data set: Cytotoxicity, CellTiter Glo. Conditions: Homo sapiens, Cardiomyocyte, 72 h, 3 days of treatment, read-out: IC50 (50% reduction in cell viability). It is filed as cell-based. The protocol:
The evaluation of the off-target effects of NV651 was performed by ImQuest BioSciences Inc. (Frederick, MD, USA) by analyzing the cytotoxicity in a panel of primary cells. NV651 was evaluated at a concentration of 30 µM and five serial half-logarithmic dilutions in triplicate. The positive control compounds for each cell type were purchased from Sigma-Aldrich (St. Louis, MO, USA) and were as follows: Unstimulated human peripheral blood mononuclear cells (PBMCs), phytohemagglutinin (PHA)-stimulated PBMCs, monocytes/macrophages, dendritic cells, hepatocytes, induced pluripotent stem cell (iPS) neurons: […] AZT, kidney cells (RPTEC): cisplatin and iPS cardiomyocytes: Doxazosin. iPS cardiomyocytes (Cellular Dynamics, Madison, WI, USA) were seeded in a 96-well plate precoated with 0.1% gelatin (Sigma-Aldrich, St. Louis, MO, USA) in a plating medium (Cellular dynamics, Madison, WI, USA) at a concentration of 1.5 × 10^4 cells/well. After 48 h of incubation, cells were washed, and NV651 diluted in the maintenance medium (Cellular Dynamics, Madison, WI, USA) was added. After 3 days of incubation, cell viability was measured with CellTiter Glo (Promega, Madison, WI, USA). CellTiter Glo was performed to evaluate cell viability. CellTiter Glo Luminescent Cell Viability Assay (Promega, Madison, WI, USA) was performed according to the manufacturer’s instructions.

Data set [3] can be described thus: Body weight during xenograft treatment. It is filed as in vivo, NMRI nude mice. To be noted: 10 mg/kg daily subcutaneous; 3 weeks. The method, then: HEPG2 cells were transduced with RediFect Red-FLuc-GFP (Perkin Elmer, Cat# CLS960003, Waltham, MA, USA) with a MOI = 3 and sorted for GFP^+ in a FACSAria III (BD Biosciences, Franklin Lakes, NJ, USA). GFP^+Luciferase (Luc)^+ HEPG2 cells were confirmed to be negative for mycoplasma with the MycoAlert^TM Mycoplasma Detection Kit (Lonza, Cat# LT07-418, Basel, Switzerland). Cell viability and a percentage of the GFP^+ cells were analyzed before the start of the in vivo experiment with a BD FACSverse cytometer (BD Biosciences, Franklin Lakes, NJ, USA). Twenty NMRI nude female mice (6–8 weeks old) were injected in one flank with 1 million cells suspended in PBS with 50% Matrigel (Corning, Cat# 354230, Corning, NY, USA) in a total volume of 200 µL. […]
Tumor growth was assessed with an in vivo imaging system (IVIS) one week after the injection of the cells. […] Body weights were measured at time 0 of the treatment and twice a week after the beginning of the treatment. […] Tumor growth was analyzed for up to 3 weeks. BLI signal intensity was quantified in total flux (photons/s) after deducting the average background signal from the measurement region of interest (ROI) around the tumor area using live image analysis software (PerkinElmer, Waltham, MA, USA).

Take `CC(=O)CCC1C(=O)NC(C(C)C)C(=O)NC(Cc2cc(O)cc(F)c2)C(=O)N2CCCC(N2)C(=O)OC(C(C)=CC=CC(=O)OC(C)(C)C)CC=CC=CC(O)C(C)C1O` (stereo not shown) [NV651]: in data set [1], the “stability of NV651 solution” value is given as “up to 3 weeks”. In addition, the IC50 (as a rule, the concentration at which inhibition is half-maximal) in data set [2] is more than 20 µM; in the data set on iPS cardiomyocytes it was more than 30 µM. In data set [3], the body weight result is on record as “no significant changes”.

The values above are taken from PMC8234462, “Novel Cyclophilin Inhibitor Decreases Cell Proliferation and Tumor Growth in Models of Hepatocellular Carcinoma” (Cancers, 2021).
